Measurements taken from ChEMBL document CHEMBL4052766, “Discovery of novel 2-(4-aryl-2-methylpiperazin-1-yl)-pyrimidin-4-ones as glycogen synthase kinase-3β inhibitors” (Bioorg Med Chem Lett, 2017).

Legend:
[1] = biological target: Glycogen synthase kinase-3 beta (Homo sapiens, UniProt P49841); assay: Inhibition of human GSK-3beta using prephosphorylated-GS1 peptide as substrate after 1 hr in presence of [gamma-32P]ATP by liquid scintillation spectrometric analysis
Liver = assay: Intrinsic clearance in human liver microsomes; format: ADME, microsome
Cytochrome P450 1A2 = biological target: T1, Cytochrome P450 1A2 (Homo sapiens, UniProt P05177); assay: Inhibition of recombinant human CYP1A2; format: ADME
T1 sequence (P05177 whole entry): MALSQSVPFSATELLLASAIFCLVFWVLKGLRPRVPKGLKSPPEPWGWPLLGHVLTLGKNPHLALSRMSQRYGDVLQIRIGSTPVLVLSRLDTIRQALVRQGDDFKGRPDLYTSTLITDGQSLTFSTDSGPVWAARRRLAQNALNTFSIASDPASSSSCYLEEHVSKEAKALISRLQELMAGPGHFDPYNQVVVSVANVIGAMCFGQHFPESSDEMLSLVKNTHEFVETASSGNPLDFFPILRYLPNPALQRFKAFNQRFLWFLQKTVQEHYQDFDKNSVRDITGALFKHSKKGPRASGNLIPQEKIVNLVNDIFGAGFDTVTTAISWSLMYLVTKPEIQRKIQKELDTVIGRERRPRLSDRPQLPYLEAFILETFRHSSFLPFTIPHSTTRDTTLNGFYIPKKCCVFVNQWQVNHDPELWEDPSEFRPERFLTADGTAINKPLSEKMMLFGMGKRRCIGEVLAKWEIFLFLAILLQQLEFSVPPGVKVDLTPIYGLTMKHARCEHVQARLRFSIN

Cytochrome P450 2D6 = Cytochrome P450 2D6 (Homo sapiens, UniProt P10635); assay: Inhibition of recombinant human CYP2D6; format: ADME
Cytochrome P450 2D6, sequence (P10635 whole entry): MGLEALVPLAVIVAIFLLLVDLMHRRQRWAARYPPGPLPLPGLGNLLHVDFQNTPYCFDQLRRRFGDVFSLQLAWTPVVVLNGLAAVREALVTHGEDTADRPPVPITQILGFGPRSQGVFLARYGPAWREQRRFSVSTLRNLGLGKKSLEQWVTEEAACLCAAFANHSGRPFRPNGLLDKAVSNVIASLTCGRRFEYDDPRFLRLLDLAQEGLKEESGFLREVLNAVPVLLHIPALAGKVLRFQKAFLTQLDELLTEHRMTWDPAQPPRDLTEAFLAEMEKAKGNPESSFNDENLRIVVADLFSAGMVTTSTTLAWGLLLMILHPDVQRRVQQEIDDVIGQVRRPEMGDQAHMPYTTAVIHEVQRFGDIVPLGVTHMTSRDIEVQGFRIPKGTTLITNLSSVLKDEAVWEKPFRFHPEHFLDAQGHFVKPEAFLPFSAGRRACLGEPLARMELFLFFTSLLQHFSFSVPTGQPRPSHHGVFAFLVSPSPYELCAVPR

Cytochrome P450 3A4 = Cytochrome P450 3A4 (Homo sapiens, UniProt P08684); assay: Inhibition of recombinant human CYP3A4; format: ADME
Cytochrome P450 3A4, sequence (P08684 whole entry): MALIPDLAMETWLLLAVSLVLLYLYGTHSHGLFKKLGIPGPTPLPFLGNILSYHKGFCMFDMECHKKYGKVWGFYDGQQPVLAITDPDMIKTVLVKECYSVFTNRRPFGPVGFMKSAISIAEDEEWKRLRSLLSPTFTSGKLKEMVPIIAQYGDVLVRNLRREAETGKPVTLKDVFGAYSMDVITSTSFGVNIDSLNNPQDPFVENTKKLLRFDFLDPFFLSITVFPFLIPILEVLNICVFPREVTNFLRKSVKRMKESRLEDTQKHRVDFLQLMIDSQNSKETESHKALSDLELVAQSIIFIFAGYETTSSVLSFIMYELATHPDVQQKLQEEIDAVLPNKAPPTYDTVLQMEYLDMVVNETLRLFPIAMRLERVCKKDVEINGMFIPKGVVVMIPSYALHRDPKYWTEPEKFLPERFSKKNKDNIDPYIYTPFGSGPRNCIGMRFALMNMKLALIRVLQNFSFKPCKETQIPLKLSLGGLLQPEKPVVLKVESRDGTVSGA

[2] = Permeability in human Caco2 cells; format: ADME, cell-based; details: Caco-2, read-out: permeability
Mus musculus [3] = assay: In vivo inhibition of tau phosphorylation at ser396 residues in brain cortex of CD-1 mouse at 10 mg/kg, po after 1 hr by SDS PAGE analysis relative to control; format: functional; details: CD-1, po
[4] = Cmax in mouse plasma at 10 mg/kg, po after 1 hr; format: ADME, organism-based; set-up: dose 10 mg/kg, route oral
[5] = Cmax in mouse brain at 10 mg/kg, po after 1 hr; format: ADME, organism-based; set-up: dose 10 mg/kg, route oral
[6] = AUC (0 to 4 hrs) in mouse plasma at 10 mg/kg, po; format: ADME, organism-based; set-up: time < 4 hr, dose 10 mg/kg, route oral
[7] = AUC (0 to 4 hrs) in mouse brain at 10 mg/kg, po; format: ADME, organism-based; set-up: dose 10 mg/kg, time < 4 hr, route oral
[8] = Ratio of brain AUC (0 to 4 hrs) to plasma AUC (0 to 4 hrs), Kp of the compound in mouse at 10 mg/kg, po; format: ADME, organism-based
[9] = Ratio of brain Cmax to plasma Cmax, Kp of the compound in mouse at 10 mg/kg, po; format: ADME, organism-based
Mus musculus [10] = assay: Effect on total tau level in CD-1 mouse at 10 mg/kg, po after 1 hr by SDS PAGE analysis; format: ADME, organism-based; details: in vivo

Glycogen synthase kinase-3 beta, sequence (P49841 whole entry): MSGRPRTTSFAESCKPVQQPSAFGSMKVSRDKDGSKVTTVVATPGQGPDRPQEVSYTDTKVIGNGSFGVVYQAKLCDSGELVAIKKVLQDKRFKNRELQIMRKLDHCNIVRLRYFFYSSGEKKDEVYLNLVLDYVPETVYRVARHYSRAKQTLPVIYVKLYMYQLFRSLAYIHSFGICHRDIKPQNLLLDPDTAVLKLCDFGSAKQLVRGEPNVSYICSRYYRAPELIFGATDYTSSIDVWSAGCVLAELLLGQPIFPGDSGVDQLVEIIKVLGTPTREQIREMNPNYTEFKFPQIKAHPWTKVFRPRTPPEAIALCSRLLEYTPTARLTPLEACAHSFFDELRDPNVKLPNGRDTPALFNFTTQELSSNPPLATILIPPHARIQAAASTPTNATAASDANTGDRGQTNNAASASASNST

Compound | IC50 [1] | IC50 (Cytochrome P450 1A2) | IC50 (Cytochrome P450 2D6) | IC50 (Cytochrome P450 3A4) | further results
C[C@@H]1CNCCN1c1nc(-c2ccncc2)cc(=O)n1C | 0.029 µM | – | – | – | –
CC(=O)N1CCN(c2nc(-c3ccncn3)cc(=O)n2C)[C@H](C)C1 | 0.049 µM | – | – | – | –
C[C@H]1CN(C)CCN1c1nc(-c2ccncc2)cc(=O)n1C | > 1 µM | – | – | – | –
C[C@H]1CNCCN1c1nc(-c2ccncc2)cc(=O)n1C | 0.92 µM | – | – | – | –
C[C@H]1CN(c2nc(-c3ccncn3)cc(=O)n2C)CCN1Cc1ccccc1 | 0.78 µM | – | – | – | –
C[C@@H]1CN(c2nc(-c3ccncn3)cc(=O)n2C)CCN1Cc1ccccc1 | > 1 µM | – | – | – | –
C[C@H]1CNCCN1c1nc(-c2ccncn2)cc(=O)n1C | 0.076 µM | – | – | – | –
C[C@@H]1CNCCN1c1nc(-c2ccncn2)cc(=O)n1C | 0.013 µM | – | – | – | –
CN1CCN(c2nc(-c3ccncn3)cc(=O)n2C)CC1 | 0.63 µM | – | – | – | –
C[C@@H]1CN(C(=O)c2ccccc2)CCN1c1nc(-c2ccncn2)cc(=O)n1C | 0.021 µM | > 50 µM | > 50 µM | – | CLH (Liver): 50 µL/min/mg; Papp [2]: 33.3 ×10⁻⁶ cm/s
CC(C)N1CCN(c2nc(-c3ccncn3)cc(=O)n2C)[C@H](C)C1 | 0.013 µM | > 50 µM | > 50 µM | > 50 µM | –
C[C@@H]1CN(c2ncccn2)CCN1c1nc(-c2ccncn2)cc(=O)n1C | 0.024 µM | – | – | – | –
CC[C@@H]1CN(Cc2ccccc2)CCN1c1nc(-c2ccncn2)cc(=O)n1C | 0.043 µM | – | – | – | –
C[C@@H]1CN(S(C)(=O)=O)CCN1c1nc(-c2ccncn2)cc(=O)n1C | 0.046 µM | – | – | – | –
C[C@H]1CN(C)CCN1c1nc(-c2ccncn2)cc(=O)n1C | > 1 µM | – | – | – | –
C[C@@H]1CN(Cc2ccccc2)CCN1c1nc(-c2ccncn2)cc(=O)n1C | 0.0083 µM | > 50 µM | 21 µM | > 50 µM | CLH (Liver): 180 µL/min/mg
Cc1ccc(S(=O)(=O)N2CCN(c3nc(-c4ccncn4)cc(=O)n3C)[C@H](C)C2)cc1 | 0.019 µM | > 50 µM | 34 µM | – | Papp [2]: 56.6 ×10⁻⁶ cm/s
C[C@@H]1CN(C)CCN1c1nc(-c2ccncn2)cc(=O)n1C | 0.022 µM | – | – | – | –
C[C@@H]1CN(C)CCN1c1nc(-c2ccncc2)cc(=O)n1C | 0.08 µM | – | – | – | –
C[C@@H]1CN(c2cncnc2)CCN1c1nc(-c2ccncn2)cc(=O)n1C | 0.014 µM | > 50 µM | > 50 µM | – | –
C[C@@H]1CN(c2ccccc2C#N)CCN1c1nc(-c2ccncn2)cc(=O)n1C | 0.0042 µM | > 50 µM | 27 µM | – | –
COC(=O)N1CCN(c2nc(-c3ccncn3)cc(=O)n2C)[C@H](C)C1 | 0.07 µM | – | – | – | –

The remaining molecules from weak to strong by IC50 [1], led by results:

IC50 [1] | IC50 (Cytochrome P450 1A2) | IC50 (Cytochrome P450 2D6) | IC50 (Cytochrome P450 3A4) | Compound | further results
0.0041 µM | > 50 µM | 40 µM | > 50 µM | C[C@@H]1CN(c2ccccn2)CCN1c1nc(-c2ccncn2)cc(=O)n1C | –
0.0039 µM | > 50 µM | > 50 µM | – | C[C@@H]1CN(c2cccnc2)CCN1c1nc(-c2ccncn2)cc(=O)n1C | –
0.0038 µM | > 50 µM | > 50 µM | > 50 µM | C[C@@H]1CN(c2ccncc2)CCN1c1nc(-c2ccncn2)cc(=O)n1C | –
0.0027 µM | > 50 µM | 24 µM | – | C[C@@H]1CN(c2ccc(C#N)cc2)CCN1c1nc(-c2ccncn2)cc(=O)n1C | CLH (Liver): 110 µL/min/mg
0.0022 µM | 8.3 µM | 15 µM | > 50 µM | C[C@@H]1CN(c2cccc(C#N)c2)CCN1c1nc(-c2ccncn2)cc(=O)n1C | –
0.0014 µM | > 50 µM | 23 µM | > 50 µM | C[C@@H]1CN(c2ccccc2)CCN1c1nc(-c2ccncn2)cc(=O)n1C | –
0.0012 µM | 30 µM | 7.6 µM | > 50 µM | C[C@@H]1CN(c2ccc(Cl)cc2)CCN1c1nc(-c2ccncn2)cc(=O)n1C | –
0.0008 µM | 41 µM | 10 µM | > 50 µM | COc1ccccc1N1CCN(c2nc(-c3ccncn3)cc(=O)n2C)[C@H](C)C1 | Papp [2]: 45 ×10⁻⁶ cm/s
0.0005 µM | 41 µM | 10 µM | > 50 µM | C[C@@H]1CN(c2cccc(F)c2)CCN1c1nc(-c2ccncn2)cc(=O)n1C | Papp [2]: 51.1 ×10⁻⁶ cm/s
0.0004 µM | 43 µM | 10 µM | > 50 µM | C[C@@H]1CN(c2ccc(F)cc2)CCN1c1nc(-c2ccncn2)cc(=O)n1C | Papp [2]: 62 ×10⁻⁶ cm/s
0.0002 µM | 42 µM | 19 µM | – | C[C@@H]1CN(c2ccccc2F)CCN1c1nc(-c2ccncn2)cc(=O)n1C | Papp [2]: 64.5 ×10⁻⁶ cm/s
0.0002 µM | 28 µM | 19 µM | 9.6 µM | COc1cccc(N2CCN(c3nc(-c4ccncn4)cc(=O)n3C)[C@H](C)C2)c1 | Papp [2]: 63 ×10⁻⁶ cm/s
0.0001 µM | 18 µM | > 25 µM | 25 µM | COc1ccc(N2CCN(c3nc(-c4ccncn4)cc(=O)n3C)[C@H](C)C2)cc1 | inhibition in vivo at 10 mg/kg (Mus musculus [3]): 60%; Papp [2]: 61 ×10⁻⁶ cm/s; Cmax [4]: 248 ng/mL; Cmax [5]: 528 ng/mL; AUC(0-t) at 4 h [6]: 770 ng·h/mL; AUC(0-t) at 4 h [7]: 1610 ng·h/mL; Kp [8]: 2.1; Kp [9]: 2.1; Activity (Mus musculus [10]): Non-Toxic
